Data set [1] addresses T1, hM3Dq (Homo sapiens, UniProt P20309, A239G/Y149C). Kind of data set: [3H]clozapine competition binding, membranes of HEK-293 cells expressing hM3Dq.
Protocol: Cells were routinely tested for myclopasma contamination (MycoAlert® Mycoplasma Detection Kit, Lonza). Cells were seeded on 60 cm^2 dishes at 4 × 10^6 cells/dish 24 h before transfection. The indicated amount of cDNA was transfected into HEK-293 cells using polyethylenimine (PEI; Sigma-Aldrich) in a 1–2 DNA:PEI ratio. Cell harvesting for radioligand binding experiments or signaling assays were performed approximately 48 h after transfection.
Cells were suspended in Tris-HCl 50 mM pH 7.4 supplemented with protease inhibitor cocktail (1:100, Sigma-Aldrich, St. Louis, MO, USA). The dissected brain tissue was diluted in Tris-HCl 50 mM buffer supplemented with protease inhibitor cocktail (1:1000). HEK-293 cells or brain tissue were disrupted with a Polytron homogenizer (Kinematica, Basel, Switzerland). Homogenates were centrifuged at 48,000g (50 min, 4 °C) and washed twice in the same conditions to isolate the membrane fraction. Protein was quantified by the bicinchoninic acid method (Pierce). […] In all cases, free and membrane-bound radioligand were separated by rapid filtration of 500-μl aliquots in a 96-well plate harvester (Brandel, Gaithersburg, MD, USA) and washed with 2 ml of ice-cold Tris-HCl buffer. […] One-site competition curves were fitted using Prism 7 (GraphPad Software, La Jolla, CA, USA). Ki values were calculated using the Cheng–Prusoff equation.
For data set [2], the target named is T2, hM4Di (Homo sapiens, UniProt P08173, A203G/Y113C).
T2 sequence (P08173 1-479 Y113C/A203G): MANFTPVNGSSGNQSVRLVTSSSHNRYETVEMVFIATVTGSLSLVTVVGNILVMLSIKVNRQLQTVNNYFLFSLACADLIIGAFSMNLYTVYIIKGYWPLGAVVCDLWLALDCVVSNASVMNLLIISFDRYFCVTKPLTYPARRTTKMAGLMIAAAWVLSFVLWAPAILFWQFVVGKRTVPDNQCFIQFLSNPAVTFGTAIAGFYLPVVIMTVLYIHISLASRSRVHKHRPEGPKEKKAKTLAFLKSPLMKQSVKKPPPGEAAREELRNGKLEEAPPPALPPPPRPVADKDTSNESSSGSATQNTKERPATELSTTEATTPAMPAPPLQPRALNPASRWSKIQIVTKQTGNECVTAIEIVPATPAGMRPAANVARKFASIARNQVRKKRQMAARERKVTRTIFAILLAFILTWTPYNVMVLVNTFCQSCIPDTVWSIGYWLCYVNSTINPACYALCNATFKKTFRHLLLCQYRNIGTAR
Kind of data set: Locomotor activity in D1-hM4Di mice.
Description: (§1) Wild-type mice (C57BL/6J) were ordered from Jackson Laboratories and rats (Sprague–Dawley) were ordered from Charles River. Rodents were male and ordered at ~6 weeks of age. Transgenic mice were bred at NIDA breeding facility. […] Three male rhesus monkeys (Macaca mulatta) weighed 8–12 kg. All experiments and procedures complied with all relevant ethical regulations for animal testing and research and followed NIH guidelines and were approved by each institute’s animal care and use committees.
(§2) Ten minutes after injection, animals were placed in an open field arena (Opto-varimex ATM3, Columbus Instruments) and their locomotor activity was tracked during 60 min as infrared beam crossings and traveled distance was converted to cm. Animals were repeatedly tested on consecutive sessions (after an initial habituation session with no drug treatment) in a counterbalanced design.

The target of data set [3] is T2, hM4Di. In words: BRET Galpha-o1 protein activation assay in HEK-293 cells transfected with hM4Di. On the set-up: host or cells: HEK-293. Type of data set: cell-based. The following applies: for hM4Di activation, concentration-response points: replicates. As for the experimental part:
The indicated amount of cDNA was transfected into HEK-293 cells using polyethylenimine (PEI; Sigma-Aldrich) in a 1–2 DNA:PEI ratio. Cell harvesting for radioligand binding experiments or signaling assays were performed approximately 48 h after transfection.
BRET assays were performed to detect receptor ligand-induced Gαo1 protein activation. […] Forty-eight hour after transfection cells were harvested, washed and resuspended in phosphate-buffered saline (PBS). Approximately, 200,000 cells/well were distributed in 96-well plates, and 5 µM Coelenterazine H (substrate for luciferase) was added to each well. Five minutes after addition of Coelenterazine H, ligands were added to each well. […] Results were calculated for the BRET change (BRET ratio for the corresponding drug minus BRET ratio in the absence of the drug) 5 min after the addition of the ligands.
(Bioluminescence resonance energy transfer reports proximity on the nanometre scale.)

The next data set has as its system WT mice. In words: Locomotor activity in WT mice.
In data set [4] the test system is untransfected HEK-293 cells. In words: Negative controls of the functional assays: HEK-293 cells without DREADD. Type of data set: cell-based, human. Particulars: for functional response, BRET (Go-alpha-Rluc8, beta1, gamma2-mVenus), no DREADD / functional response, GCaMP6f, no DREADD: HEK-293 cells. As for the experimental part:
BRET assays were performed to detect receptor ligand-induced Gαo1 protein activation. […] Forty-eight hour after transfection cells were harvested, washed and resuspended in phosphate-buffered saline (PBS). Approximately, 200,000 cells/well were distributed in 96-well plates, and 5 µM Coelenterazine H (substrate for luciferase) was added to each well. Five minutes after addition of Coelenterazine H, ligands were added to each well. The fluorescence of the acceptor was quantified (excitation at 500 nm and emission at 540 nm for 1-s recordings) in a PheraStar FSX plate reader (BMG Labtech) to confirm the constant expression levels across experiments. In parallel, the BRET signal from the same batch of cells was determined as the ratio of the light emitted by mVenus (510–540 nm) over that emitted by RLuc (485 nm). Results were calculated for the BRET change (BRET ratio for the corresponding drug minus BRET ratio in the absence of the drug) 5 min after the addition of the ligands.
Intracellular Ca^2+ concentration was monitored using the fluorescent Ca^2+ biosensor GCaMP6f. HEK-293 cells were transfected with 7 µg/dish of the cDNA encoding for hM3Dq (Addgene #89149) or hM4Di (Addgene #89150) and 7 µg/dish of GCaMP6. Forty-eight hours after transfection, cells were harvested, washed, resuspended in Mg^2+-free Locke’s buffer pH 7.4 (154 mM NaCl, 5.6 mM KCl, 3.6 mM NaHCO3, 2.3 mM CaCl2, and 5 mM HEPES) containing 5.6 mM of glucose and approximately 200,000 cells/well were distributed in black 96-well plates. Increasing concentrations of the indicated compound were added to the cells and fluorescence intensity (excitation at 480 nm, emission at 530 nm) was measured at 18-s intervals during 250 s using a PHERAstar FSX (BMG Labtech). The net change in intracellular Ca^2+ concentration was expressed as F − F0 where F is the fluorescence at a given concentration of ligand and F0 is the average of the baseline values (fluorescence values of buffer-treated wells).

For the next data set, the target named is T3, P-gp (Homo sapiens, UniProt P08183).
T3 construct: host or cells: Caco-2
Kind of data set: P-glycoprotein (P-gp) substrate assay in Caco-2 cells with and without verapamil. Format: in vitro ADME. Particulars: Caco-2, efflux ratio with/without verapamil. Here is the method:
These experiments were performed by an outside vendor (Eurofins, France). C21 was tested in P-gp substrate assessment assays at 10 µM. The A to B and B to A permeability was measured in Caco-2 cells in the presence and absence of verapamil, a P-gp inhibitor. Efflux ratios (E) were calculated based on the apparent B–A and A–B permeability with and without verapamil. In each experiment, the respective reference compound was tested concurrently with the test compound to assess the assay reliability. Fluorescein was used as the cell monolayer integrity marker. Fluorescein permeability assessment (in the A–B direction at pH 7.4 on both sides) was performed after the permeability assay for the test compound.
(Caco-2 monolayers are a common model of the intestinal barrier.)

The next data set deals with striatal DREADDs. Kind of data set: [11C]clozapine PET DREADD occupancy in AAV-DREADD mice.
The target of data set [5] is T1, hM3Dq.
Description: as §1, §2

“And” between values parts separate entries of the source, which are not always exact repeats. Equal entries are not always repeated. “Also recorded” adds a separate entry of the source. Where two headings read alike, the source gives them in different places.

Here are results for 2 compounds from publication PMC6788984, “High-potency ligands for DREADD imaging and activation in rodents and monkeys” (Nature Communications, 2019).

For orientation: EC50 means the concentration that produces a half-maximal response. A higher EC50 goes with lower potency in that assay.

T3 sequence (P08183 whole entry): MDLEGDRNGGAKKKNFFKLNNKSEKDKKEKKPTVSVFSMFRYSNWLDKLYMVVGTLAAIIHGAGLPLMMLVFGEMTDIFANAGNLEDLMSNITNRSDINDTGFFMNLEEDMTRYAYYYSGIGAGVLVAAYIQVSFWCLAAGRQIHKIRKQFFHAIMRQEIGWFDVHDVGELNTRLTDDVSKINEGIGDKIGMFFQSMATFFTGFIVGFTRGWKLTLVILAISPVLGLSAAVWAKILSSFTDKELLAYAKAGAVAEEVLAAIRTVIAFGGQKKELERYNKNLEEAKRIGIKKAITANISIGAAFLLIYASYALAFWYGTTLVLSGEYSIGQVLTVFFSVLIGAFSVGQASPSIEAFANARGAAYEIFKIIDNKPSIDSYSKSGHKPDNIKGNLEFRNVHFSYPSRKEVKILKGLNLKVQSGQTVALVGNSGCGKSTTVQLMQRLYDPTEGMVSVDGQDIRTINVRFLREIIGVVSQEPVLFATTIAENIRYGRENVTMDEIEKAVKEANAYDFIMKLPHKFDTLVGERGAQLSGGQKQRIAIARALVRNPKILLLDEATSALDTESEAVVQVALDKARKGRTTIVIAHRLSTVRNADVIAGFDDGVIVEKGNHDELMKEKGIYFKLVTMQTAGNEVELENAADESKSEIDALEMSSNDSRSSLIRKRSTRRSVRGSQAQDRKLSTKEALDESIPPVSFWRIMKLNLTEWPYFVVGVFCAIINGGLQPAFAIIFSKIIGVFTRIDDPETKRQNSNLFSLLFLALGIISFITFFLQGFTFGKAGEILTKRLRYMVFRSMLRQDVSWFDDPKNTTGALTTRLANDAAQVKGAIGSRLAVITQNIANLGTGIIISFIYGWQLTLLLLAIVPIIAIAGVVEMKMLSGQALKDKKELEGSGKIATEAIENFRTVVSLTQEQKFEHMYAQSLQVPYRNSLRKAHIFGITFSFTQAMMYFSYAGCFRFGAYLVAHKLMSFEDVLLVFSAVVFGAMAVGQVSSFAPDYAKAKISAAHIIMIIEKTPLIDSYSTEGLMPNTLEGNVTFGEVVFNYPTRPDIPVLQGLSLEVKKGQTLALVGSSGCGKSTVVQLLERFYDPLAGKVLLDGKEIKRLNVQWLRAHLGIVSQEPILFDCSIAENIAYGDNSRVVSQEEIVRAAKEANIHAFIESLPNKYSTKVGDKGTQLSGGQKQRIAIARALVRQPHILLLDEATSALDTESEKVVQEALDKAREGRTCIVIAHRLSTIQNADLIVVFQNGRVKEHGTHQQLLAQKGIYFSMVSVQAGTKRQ
T1 sequence (P20309 whole entry Y149C/A239G): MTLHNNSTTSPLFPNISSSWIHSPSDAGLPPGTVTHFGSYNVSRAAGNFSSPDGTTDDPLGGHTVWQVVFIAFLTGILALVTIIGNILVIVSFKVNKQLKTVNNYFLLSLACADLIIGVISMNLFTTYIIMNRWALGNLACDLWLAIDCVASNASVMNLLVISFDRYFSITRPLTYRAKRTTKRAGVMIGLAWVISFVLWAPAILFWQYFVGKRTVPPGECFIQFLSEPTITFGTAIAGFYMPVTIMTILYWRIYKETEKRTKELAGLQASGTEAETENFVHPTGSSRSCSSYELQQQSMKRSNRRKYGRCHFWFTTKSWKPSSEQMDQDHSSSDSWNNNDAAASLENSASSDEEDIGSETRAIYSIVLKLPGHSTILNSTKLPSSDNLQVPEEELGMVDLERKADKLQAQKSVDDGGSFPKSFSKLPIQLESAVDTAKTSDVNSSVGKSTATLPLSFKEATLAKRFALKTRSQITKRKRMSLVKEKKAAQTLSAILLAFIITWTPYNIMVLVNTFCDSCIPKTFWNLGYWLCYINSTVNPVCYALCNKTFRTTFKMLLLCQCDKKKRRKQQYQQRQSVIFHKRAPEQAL
Description for WT mice: as §1, §2
Protocol for striatal DREADDs: Animals were anesthetized with isoflurane or a mix of ketamine/xylazine and prepped on a stereotaxic apparatus (Kopf, Germany). […] When indicated, animals were pretreated with vehicle or the indicated drug 10 min before the injection of the PET radiotracer. Total acquisition time was 60 min.
In all cases, the PET data were reconstructed and corrected for dead-time and radioactive decay. All qualitative and quantitative assessments of PET images were performed using the PMOD software environment (PMOD Technologies, Zurich Switzerland). Binding potential BPND (a relative measure of specific binding) was calculated using a reference tissue model using the cerebellum as a reference tissue in rodents. In macaques, the kinetic data were fitted to a two-tissue compartment model and the concentration of parent in plasma was used as an input function, then the volume of distribution ratios compared to cerebellum were calculated to establish BPND. In all cases, the dynamic PET images were coregistered to MRI templates and time-activity curves were generated using predefined volumes of interest (macaques) or manually drawn in rodents and the described analyses were performed. Receptor occupancy was calculated using the formula: occupancy = (BPND^0 − BPND^Drug)/BPND^0 × 100, where BPND^0 is the binding potential of the baseline condition and BPND^Drug the binding potential when the animals were pretreated with the drug.

For the compound `CCN1CCN(C2=Nc3cc(Cl)ccc3Nc3c(F)cccc32)CC1` [JHU37160, 8-Chloro-11-(4-ethylpiperazin-1-yl)-4-fluoro-5H-dibenzo[b,e][1,4]diazepine], the Ki at hM3Dq [1] is 1.9 nM. The locomotor activity entry at hM4Di [2] (D1-hM4Di mice, 0.01 to 1 mg kg-1) is reported as “selectively inhibiting locomotor activity”; in the data set on WT mice (WT mice, 0.01 to 1 mg kg-1), “without any significant locomotor effects”; on hM3Dq [5] (D1-hM3Dq mice, 0.01 to 1 mg kg-1), “selectively inhibiting locomotor activity”. The “Locomotor activity, individual animals (Figure 3 Panel C)” value at hM4Di [2] (dose 0.01) was 87.297 and 55.7522 and 80.3935 and 127.49 and 164.341 and 150.985 and 118.596 and 28.6623 and 109.457 and 25.9025 and 156.84; on hM4Di [2] (dose 0.1), 22.2583 and 26.4102 and 36.6386 and 50.3064 and 38.3173 and 43.9761 and 103.495 and 48.2345 and 24.5922 and 6.944 and 42.5594; at hM4Di [2] (dose 1), 71.4509 and 37.5721 and 8.672 and 75.5783 and 18.1309 and 89.8357 and 75.9222 and 7.305 and 23.6013 and 9.934 and 15.3384. The same compound yielded an EC50 at hM4Di [3] (BRET-based assay in HEK-293 cells) of 0.2 nM. Moreover, the “Locomotor activity, individual animals (Figure 3 Panel A)” value in the data set with WT mice (WT mice, dose 0.01) is 15.4443 and 132.603 and 147.829 and 129.309 and 75.7603 and 45.5126 and 63.7894 and 145.958 and 96.1391 and 10.074 and 65.3531 and 48.0503 and 10.0356 and 25.3389 and 152.354 and 157.609 and 175.04; in the data set with WT mice (WT mice, dose 0.1) it was 28.3765 and 136.794 and 39.0145 and 128.13 and 27.5178 and 138.037 and 95.0881 and 162.364 and 107.636 and 24.3135 and 117.274 and 117.261 and 37.3098 and 136.435 and 99.1126 and 117.312 and 123.413; in the data set with WT mice (WT mice, dose 1), 10.497 and 121.35 and 79.3619 and 104.303 and 59.97 and 24.8262 and 41.2959 and 159.16 and 61.4696 and 5.601 and 141.242 and 63.7125 and 17.4822 and 64.5071 and 75.0041 and 144.933 and 145.945. In addition, the “functional response in HEK-293 cells lacking DREADDs” value in data set [4] is listed as “no responses were observed; also recorded: did not produce any agonistic effect”. Further, in data set [4], the “functional response, BRET (Go-alpha-Rluc8, beta1, gamma2-mVenus), no DREADD” value is “did not show any functional response”. The “functional response, GCaMP6f, no DREADD” value in data set [4] is reported as “did not show any functional response”. The P-gp substrate result at P-gp is recorded as “Neither JHU37152 nor JHU37160 were P-gp substrates”; on P-gp (listed as J60), “none of these compounds is a substrate for P-gp”. Besides, the “occupancy of striatal DREADDs” value in the data set on striatal DREADDs (0.1 mg kg-1 IP) is listed as 15–20%.
On to `c1ccc2c(c1)N=C(N1CCNCC1)c1ccccc1N2` [C21], for which the “less affinity than CLZ” value on hM3Dq [1] (DREADDs in HEK-293 cells) was determined as 100 fold. Further, the Ki at hM3Dq [1] (read-out: affinity (approximate, for equipotent concentrations), DREADD not specified) is ~200 nM; on hM3Dq [1] (read-out: hM3Dq Ki), 230 nM. Moreover, the locomotor activity entry was “small but significant decrease in locomotor activity” on hM4Di [2] (D1-hM4Di mice, 1 mg/kg); “did not affect locomotor activity” with WT mice (mouse, in vivo); “robust decrease of locomotor activity” at hM3Dq [5] (D1-hM3Dq mice, 0.1 and 1 mg/kg). Further, the behavior entry on hM4Di [2] (D1-hM4Di mice, 10 mg/kg) was “sedation”; at hM3Dq [5] (D1-hM3Dq mice, 10 mg/kg) it was “seizure-like behavior”. Also, the “dose required to activate hM4Di” value at hM4Di [2] (rodents) was “at least 1 mg kg^-1”. Further, the “hM4Di activation, concentration-response points” value at hM4Di [3] (Log [compound] -4) was 96.8817; at hM4Di [3] (Log [compound] -4.5), 116.397; on hM4Di [3] (Log [compound] -5), 108.743 and 111.119 and 118.355; on hM4Di [3] (Log [compound] -6) it was 104.765 and 108.926 and 107.08; on hM4Di [3] (Log [compound] -7), 91.0167 and 106.137 and 98.8868; at hM4Di [3] (Log [compound] -8), 65.4069 and 99.8095 and 89.0469. Besides, the “hM4Di activation, concentration-response points” value on hM4Di [3] (Log [compound] -9) is 48.391 and 67.2323 and 60.3348; at hM4Di [3] (Log [compound] -10) it was 22.6996 and 44.1322 and 29.3744; on hM4Di [3] (Log [compound] -12), 8.666; at hM4Di [3] (Log [compound] -15) it was 7.3972 and 3.296 and 3.683. In addition, the “Gi/o activation, potency relative to clozapine” value on hM4Di [3] (cells or tissue expressing hM4Di) is on record as “less potent than clozapine”. In the data set on WT mice (WT mice, 10 mg/kg), the “locomotor activity / non-specific effects” value is on record as “produced non-specific effects”. For the same compound, the “doses producing off-target effects” value in the data set with WT mice (mice without DREADDs) is reported as “higher than 1 mg kg^-1”. The “functional response in HEK-293 cells lacking DREADDs” value in data set [4] is “Neither clozapine nor C21 produced detectable functional responses”. Also, the “functional response, BRET (Go-alpha-Rluc8, beta1, gamma2-mVenus), no DREADD” value in data set [4] is reported as “did not show any functional response”. Moreover, the “functional response, GCaMP6f, no DREADD” value in data set [4] is given as “did not show any functional response”. Also, the P-gp substrate result at P-gp was “none of these compounds is a substrate for P-gp”. For the same compound, in the data set with striatal DREADDs (1 mg/kg IP), the “in vivo DREADD occupancy ([11C]CLZ displacement)” value is ~ 10%. The “lowest dose activating hM3Dq” value on hM3Dq [5] (rodents (rats and mice)) is 0.1 mg/kg.
